One series concerns spleen cells. As to the kind of experiment: In vivo treatment of mice: effect on in vitro stimulation of spleen cell proliferation by Con A. Also on record: species or system mice (Balb/C). The settings on record: oral, twice daily for 1 day; for response of spleen cells to Con A versus placebo: Con A 10 μg/ml; for subsequent response of the spleen cells, in vitro, to Con A stimulation: suboptimal Con A 5 μg/ml. As for the experimental part:
The purpose of this study was to determine the effects of in vivo treatment of mice with the compounds NPT 15392 and 15410 on the subsequent activity of spleen cells isolated from these animals and evaluated in vitro for their proliferative response to the mitogen, Concanavalin A (Con A).
Nine male Balb/C mice, 8-9 weeks old, weighing 18-20 gms were divided into three groups. One group was treated twice daily (for 1 day), in the morning and afternoon, with an oral dose of NPT 15392 at 10 mg/kg. The second group was similarly treated with NPT 15410 at 20 mg/kg. A third group, dosed with saline served as a placebo control.
The following day, each group was sacrificed and the spleens removed and pooled. The spleens were minced and the cells washed in RPMI-1640 medium (Grand Island Biologicals) supplemental with 2 mm glutamine and antibiotics. The cell concentration of each preparation was determined by a Coulter counter and adjusted to 5×10^6 cells/ml with RPMI medium.
Microtiter assays were carried out in 0.2 ml incubations, containing 5×10^5 cells and Con A or Con A and compounds at the indicated concentrations. All assays were performed with 6 replicates and compared with a blank assay containing only cells. The assay plates were incubated at 37° in 5% CO2 for 4 days. During the final 18-20 hours of incubation, 0.5 ml of ^3 HTdR (10 μCi/ml, 6 Ci /m mole) were added to each culture. The cultures were harvested with a multiple automatic sample harvester (MASH) unit and the incorporated ^3 HTdR determined with a Beckman LS 8000 liquid scintillation counter, as a measure of cell proliferation. The results are tabulated as the ratio of the activity in the Con A or Con A and compound treated cultures to the blank cultures.

The next series is described as follows: Phase solubility studies. The format is physicochemical. To be noted: constant pH. An excerpt:
This is indicative of an interaction occuring in solution to yield a complex.

The test system of a further series is herpes hominis type 2. As to the kind of experiment: Anti-Herpes Activity (Plaque Assay). The series is classed as cell-based. To be noted: concentrations less than 100 μg/ml. An excerpt:
The infection of tissue culture cells by Herpes virus causes cell lysis. After a period of time these lysed cells are visualized as a tiny clear area (plaque) on a layer of cells. The incorporation of a test substance into the media will reduce the number of plaques if it is capable of preventing virus replication. The method is as follows:
There was employed herpes hominis type 2 purchased from American Type Culture Collection (ATCC), Bethesda, Md., ATCC #VR 540, Lot 3D. The lyophilized viral suspension was reconstituted with 1 ml sterile distilled H2 O. The virus was passed twice through HeLa-cell monolayers. The tissue-culture supernates were pooled, dispensed in 1-ml aliquots, and stored at -70° C.
Vero cells in log-growth phase were subcultured at a concentration of 1×10^5 cells/ml in 50-ml Falcon flasks in Eagle's Minimum Essential Medium (MEM), supplemented with 10% fetal calf serum (FCS) and antibiotics. Media were changed the day following planting. […]
Agarose was prepared at a concentration of 6% w/v in 50 ml PBS. […] In addition, a 1:10 dilution of pooled human anti-herpes sera was readied. […]
Plaques were counted either directly by transmitted fluorescent light and macroviewing, or by the use of light microscopy for microplaques. Microplaques were counted by averaging three fields per experimental group under 150× magnification.

Experimental findings from US4221909A, “P-Acetamidobenzoic acid salts of 9-(hydroxyalkyl) purines” (Sloan-Kettering Institute for Cancer Research, priority 1978, dated 1980) are described below.

A value given as a limit tells only on which side of the number the result lay.

As to `CCCCCC[C@H]([C@H](C)O)n1cnc2c(=O)[nH]cnc21` (relative stereo) [NPT 15392, Erythro-9-(2-Hydroxy-3-Nonyl)Hypoxanthine], in the series on spleen cells, the “response of spleen cells to Con A versus placebo” value is given as “No significant differences” and the “subsequent response of the spleen cells, in vitro, to Con A stimulation” value is “increases the subsequent response of the spleen cells”. Moreover, in “Phase solubility studies”, the “solubility at increasing concentrations of DIP.PAcBA” value was “increased solubility”. For the same molecule, in the series on herpes hominis type 2, the “reduction of plaque formation caused by Herpes Simplex virus” value is reported as more than 90%.
As to `CCCCCC[C@H]([C@H](C)O)n1cnc2c(=O)[nH]cnc21` (relative stereo) [NPT 15410], in the series on spleen cells, the “response of spleen cells to Con A versus placebo” value was “No significant differences” and the “subsequent response of the spleen cells, in vitro, to Con A stimulation” value is “increases the subsequent response of the spleen cells”.
